The record followed here is patent US20190142971A1, “FORMULATION AND DELIVERY OF MODIFIED NUCLEOSIDE, NUCLEOTIDE, AND NUCLEIC ACID COMPOSITIONS” (ModernaTX, Inc., priority 2013, published 2019).

Data set [1] concerns Balb-C mice. Kind of data set: Example 108: luciferase mRNA IM with electroporation, total flux (Tables 174-176). Format: in vivo. Particulars: PBS, IM 2.5 mg/kg. As for the experimental part: The mice of Group 2 were treated with electroporation (EP) using the […]™ instrument (Harvard Apparatus/BTX®, Holliston, Mass.) immediately after administration of luciferase.
[…] Twenty minutes prior to imaging, the mice were injected intraperitoneally with a D-luciferin solution at 150 mg/kg. Animals were then anesthetized and images were acquired with an IVIS Lumina II imaging system (Perkin Elmer). Bioluminescence was measured as total flux (photons/second) of the entire mouse.

In data set [2] the test system is Balb-C mice. Kind of data set: Example 117: repeat dose luciferase KC2 LNP IM, IV, live and tissue imaging (Tables 192-200). The class given is in vivo. Particulars: luciferase mRNA in PBS, IM 2.50 mg/kg. Here is the method:
“TM-2” means the groups were administered with 2 doses, administered 24 hours apart, “IV” means intravenous administration, “TV-1” means the groups were administered a single dose tail vein injection and “TV-2” means the groups were administered with 2 doses, administered 7 days apart. 2 groups of untreated Balb-C mice (n=3) were also evaluated. Groups 1, 3 and 7 were injected in the right leg and administration was repeated but into the left leg with 24 hours between injections. Groups 2, 4, and 9 were administered the mRNA in the right leg followed by repeat administration in the right leg with 24 hours between injections for Group 2 and 7 days between injections for Groups 4 and 9.
The final lipid molar ratio ranges of DLin-KC2-DMA, DSPC, cholesterol and PEG-DMG for the KC2 LNP are outlined in Table 194. The weight ratio of total lipid to mRNA was 20:1, the mean size was 95 nm (PDI: 0.11), the zeta at pH 7.4 was −1.0 mV and the encapsulation (RiboGreen) was essentially 100%.
Live imaging mice were imaged at 8 hours post-administration of each dose of luciferase modified mRNA and tissue imaging mice imaged 8 post-administration of the final dose of luciferase modified mRNA. Twenty minutes prior to imaging, the mice were injected intraperitoneally with a D-luciferin solution at 150 mg/kg. Animals were then anesthetized and images were acquired with an IVIS Lumina II imaging system (Perkin Elmer). For the tissue imaging mice (Groups 6-9), the mice were dissected twenty minutes after the D-luciferin injection and organs and tissue were subsequently imaged (muscle around injection site, liver and spleen for Groups 6 and 7 and were subsequently imaged the liver and spleen for Groups 8 and 9). Bioluminescence was measured as total flux (photons/second) of the mid-section and the entire mouse (IV administration), the injection site (IM administration), or the entire organ (tissue imaging).

The next data set has as its system mice. Kind of data set: Example 48: split dose study EPO mmRNA IM in mice, serum EPO, dose splitting factor (Table 79). Format: in vivo. Here is the method:
The dosing vehicle (F. buffer) consisted of 150 mM NaCl, 2 mM CaCl2), 2 mM Natphosphate (1.4 mM monobasic sodium phosphate; 0.6 mM dibasic sodium phosphate), and 0.5 mM EDTA, pH 6.5. The pH was adjusted using sodium hydroxide and the final solution was filter sterilized.
Animals (n=5) were injected IM (intramuscular) for the single unit dose of 100 ug. For multi-dosing, two schedules were used, 3 doses of 100 ug and 6 doses of 100 ug. For the split dosing scheme, two schedules were used, 3 doses at 33.3 ug and 6 doses of 16.5 ug mmRNA. Control dosing involved use of buffer only at 6 doses. […] Blood and muscle tissue were evaluated 13 hrs post injection.
Human EPO protein was measured in mouse serum 13 h post I.M. single, multi- or split dosing of the EPO mmRNA in buffer. Seven groups of mice (n=5 mice per group) were treated and evaluated.
The splitting factor is defined as the product per unit drug divided by the single dose product per unit drug (PUD). For example for treatment group 2 the value 0.28 or product (EPO) per unit drug (mmRNA) is divided by the single dose product per unit drug of 0.14. The result is 2. Likewise, for treatment group 4, the value 1.1 or product (EPO) per unit drug (mmRNA) is divided by the single dose product per unit drug of 0.14. The result is 7.9. Consequently, the dose splitting factor (DSF) may be used as an indicator of the efficacy of a split dose regimen. For any single administration of a total daily dose, the DSF should be equal to 1. Therefore any DSF greater than this value in a split dose regimen is an indication of increased efficacy.

The test system of the next data set is C57BL/6. Kind of data set: Example 115: human EPO mRNA electroporation multi-dose, serum EPO (Table 185). Format: in vivo, mice. The conditions noted are these: human EPO mRNA in PBS, IM 0.2 mg/kg per dose with EP. Here is the method: Serum was collected from the mice at 24 hours post the first, second, third and fourth doses.

Consider “Luciferase: luciferase mRNA, SEQ ID NO: 14, Cap1, fully modified with 5-methylcytosine and pseudouridine”, for which the “Total Flux (photons/s)” value with Balb-C mice [1] (Group 1, no EP, 3 Hours) worked out at 2.57E+07 photons/s; in the data set on Balb-C mice [1] (Group 1, no EP, 24 Hours), 3.81E+07 photons/s; in the data set on Balb-C mice [1] (Group 1, no EP, 48 Hours), 1.24E+07 photons/s; in the data set on Balb-C mice [1] (Group 1, no EP, 72 Hours), 5.69E+06 photons/s; in the data set with Balb-C mice [1] (Group 1, no EP, 168 Hours), 1.48E+06 photons/s; in the data set with Balb-C mice [1] (Group 1, no EP, 240 Hours) it was 6.50E+05 photons/s. In addition, the “Total Flux (photons/s)” value is listed as 1.86E+05 photons/s with Balb-C mice [1] (Group 1, no EP, 360 Hours); 6.65E+04 photons/s in the data set on Balb-C mice [1] (Group 1, no EP, 480 Hours); 8.27E+07 photons/s in the data set with Balb-C mice [1] (Group 2, with EP, 24 Hours); 7.06E+07 photons/s in the data set on Balb-C mice [1] (Group 2, with EP, 48 Hours); 6.50E+07 photons/s in the data set with Balb-C mice [1] (Group 2, with EP, 72 Hours); 1.81E+07 photons/s with Balb-C mice [1] (Group 2, with EP, 168 Hours). The “Total Flux (photons/s)” value in the data set with Balb-C mice [1] (Group 2, with EP, 240 Hours) amounted to 1.44E+07 photons/s; with Balb-C mice [1] (Group 2, with EP, 360 Hours), 3.98E+06 photons/s; with Balb-C mice [1] (Group 2, with EP, 480 Hours), 1.47E+06 photons/s; in the data set on Balb-C mice [1] (Group 2, with electroporation (EP), 3 Hours), 1.25E+07 photons/s. Besides, the “Expression (Flux (p/s))” value was found to be 6.71E+06 p/s with Balb-C mice [2] (Dose 1, Dosed Right limb); 2.28E+05 p/s with Balb-C mice [2] (Dose 1, Undosed Left limb); 1.16E+07 p/s with Balb-C mice [2] (Dose 2, Dosed Left limb); 2.44E+07 p/s in the data set on Balb-C mice [2] (Dose 2, Undosed Right limb).

B1: EPO: modified mRNA encoding human erythropoietin, SEQ ID NO: 7, Cap1, fully modified with 5-methylcytosine and pseudouridine; LNP NPA-060-1 in Examples 17-22 (nucleic acid)
chain: GGGAAAUAAGAGAGAAAAGAAGAGUAAGAAGAAAUAUAAGAGCCACCAUGGGAGUGCACGAGUGUCCCGCGUGGUUGUGGUUGCUGCUGUCGCUCUUGAGCCUCCCACUGGGACUGCCUGUGCUGGGGGCACCACCCAGAUUGAUCUGCGACUCACGGGUACUUGAGAGGUACCUUCUUGAAGCCAAAGAAGCCGAAAACAUCACAACCGGAUGCGCCGAGCACUGCUCCCUCAAUGAGAACAUUACUGUACCGGAUACAAAGGUCAAUUUCUAUGCAUGGAAGAGAAUGGAAGUAGGACAGCAGGCCGUCGAAGUGUGGCAGGGGCUCGCGCUUUUGUCGGAGGCGGUGUUGCGGGGUCAGGCCCUCCUCGUCAACUCAUCACAGCCGUGGGAGCCCCUCCAACUUCAUGUCGAUAAAGCGGUGUCGGGGCUCCGCAGCUUGACGACGUUGCUUCGGGCUCUGGGCGCACAAAAGGAGGCUAUUUCGCCGCCUGACGCGGCCUCCGCGGCACCCCUCCGAACGAUCACCGCGGACACGUUUAGGAAGCUUUUUAGAGUGUACAGCAAUUUCCUCCGCGGAAAGCUGAAAUUGUAUACUGGUGAAGCGUGUAGGACAGGGGAUCGCUGAUAAGCUGCCUUCUGCGGGGCUUGCCUUCUGGCCAUGCCCUUCUUCUCUCCCUUGCACCUGUACCUCUUGGUCUUUGAAUAAAGCCUGAGUAGGAAG
modifications: Cap1, 5-methylcytosine, pseudouridine
In the case of B1, the “product (EPO) per unit drug (mmRNA)” value with mice (single dose) came to 0.14; with mice (treatment group 2), 0.28; with mice (treatment group 4), 1.1. The figures for the “dose splitting factor (DSF)” value in the data set on mice (treatment group 2) and in the data set with mice (treatment group 4) were 2 and 7.9, respectively. The “First Dose EPO” value in the data set on C57BL/6 (serum 24 hours post first dose) is 9.5 pg/mL. For the same molecule, the “Fourth Dose EPO” value in the data set with C57BL/6 (serum 24 hours post fourth dose) stood at 139.9 pg/mL. Also, the “Second Dose EPO” value with C57BL/6 (serum 24 hours post second dose) stood at 27.9 pg/mL. In addition, in the data set on C57BL/6 (serum 24 hours post third dose), the “Third Dose EPO” value turned out to be 284.5 pg/mL.
